Measurements from patent US20020049157A1, “Use of proteasome inhibitors for treating cancer, inflammation, autoimmune disease, graft rejection and septic shock” (priority 1998, published 2002).

Assays:
[1] = tested on: Peripheral blood T cells; assay: Mitogen-stimulated T cell proliferation (3H-thymidine uptake); assay type: cell-based, human; conditions: for inhibition of subsequent PHA-stimulated proliferation after preincubation and wash: 10 μM LAC; for inhibition of T cell proliferation (3H-thymidine uptake): LAC added at 0 h
Protocol: Lymphocytes were stimulated with various mitogens as indicated, and LAC at different concentrations was added at the beginning of the cultures. The cells were pulsed with 3H-thymidine between 48 h and 64 h. Samples were in triplicates. All the experiments were performed at least three times and similar results were obtained. Representative results are shown.
A: Peripheral blood T cells stimulated with PHA (2 μg/ml).
B: Peripheral blood T cells stimulated with OKT3 (50 ng/ml).
C: Peripheral blood T cells stimulated with anti-CD28 (50 ng/ml) plus ionomycin (1 μg/ml).
A. The rapid effect of LAC Peripheral blood T cells were pretreated with 10 μM LAC in culture medium or in culture medium alone for 3 h or 16 h. The cells were then washed and recultured in the presence of 2 μg/ml PHA for 64 h. The cells were pulsed with ^3H-thymidine for 16 h before they were harvested at 64 h. Samples were in triplicates.
(§1) C and D. LAC blocks the S phase entry of the mitogen-stimulated peripheral blood T cells Peripheral blood T cells were stimulated with PHA (2 μ/ml) in the absence or presence of LAC (10 μM, added at 0 h, 16 h, 24 h, or 40 h, as indicated in the bottom of the panels). For the flow cytometry analysis of the cell cycle progress, the cells were harvested at 0 h, 1 6 h, 40 h and 64 h as indicated on the top of the panels (FIG. 6C). For ^3H-thymidine uptake, the triplicated cell samples were pulsed at 48 h and harvested at 64 h (FIG. 6D).
The role of proteasome in T cell activation and proliferation was first examined in PBMC, using the proteasome-specific inhibitor LAC. The PBMC were activated with various stimulants. LAC was added to the cells in the beginning of the culture (0 h) along with the stimulants. ^3H-thymidine uptake between 48 h and 64 h of 64 h cultures was used as a parameter for cell proliferation. […] Rather, it likely affects certain downstream events governing a more general process(es) in lymphocyte activation and proliferation.
We next investigated how fast and how long LAC could exert its effects on the lymphocytes, since this information is necessary to assess the requirement of the proteasome activity for events related to cell activation and proliferation. The cells were then washed and recultured in the presence of PHA. The thymidine uptake was measured 3 days later.
Peripheral blood mononuclear cells (PBMC) and tonsillar T cells were prepared as described before (Luo et al., 1992, Transplantation 53:1071; Luo et al., 1993, Clin. & Exp. Immunol. 94:371). The cells were cultured in RPMI 1640 supplemented with 10% FCS, L-glutamine and antibiotics. ^3H-thymidine uptake was carried out as described previously (Luo et al., 1992, supra; Luo et al., 1993, supra).

[2] = molecular target: 20S proteasome (Rattus norvegicus, UniProt P28075); assay: 20S proteasome chymotrypsin-like activity, positive control for LAC; assay type: biochemical
Protocol: Human PBMC were cultured in the absence or presence of 2 μg/ml PHA or 10 nM RAPA for 16 h-70 h as indicated. The cells were then harvested, and the chymotrypsin-like activity of whole cells lysates was assayed in the absence or presence of 20 μM proteasome inhibitor LAC. The data are presented as arbitrary units of fluorescence intensity per 20 μg lysate protein. The experiments were repeated three times and a representative one is shown. Samples are in duplicate and the mean±SD is shown. (A) Total chymotrypsin-like activity in the lysate of PBMC. (B) Lactacystin-inhibitable chymotrypsin-like activity in the lysate of 70 h PBMC. […] LAC was always added to the lysates during the proteinase assay 15 min before the addition of the substrate. The solid bars represent the activity in the presence of LAC. The net proteasome activities are calculated as the total activity minus the remaining activity after the LAC addition.
PBMC were cultured with or without PHA (2 μg/ml) and RAPA (10 nM). After 16 h-70 h, the cells were harvested and sonicated in 300 μl PBS on ice for 40 sec. Twenty micrograms of protein per sample from the cleared lysates were supplemented to 100 μl with 0.1 M Tris buffer (pH 8.2). […] The samples were then diluted to 2 ml with 0.1 M Tris pH8.2, and measured for their fluorescent intensity by a PTI fluorometer (Photo Technology International, South Brunswick, N.J.). […]

[3] = tested on: Bcl-xL; assay: Immunoblotting of Bcl-xL in Bcl-xL transfected Namalwa cells; assay type: cell-based, human; conditions: lactacystin 6 μM; 6 h
Protocol: Jurkat cells, wild type Namalwa cells and Bcl-xL transfected Namalwa cells were treated with medium (lanes 1), staurosporine (0.3 μM, lanes 2) and lactacystin (6 μM, lanes 3) for 6 H. The proteins from the mitochondrial fraction of these cells were analyzed by immunoblotting and the amount of Bik, Bcl-xL, Bax, and Bak evaluated. The same membranes were used sequentially and probed with different antibodies against these factors. A nonspecific band recognized by a monoclonal antibody against cytochrome […] (COX) was used as control for even sample loading in the lanes.

[4] = tested on: Tonsillar T cells; assay: Electron microscopy of T cells; assay type: cell-based, human; conditions: LAC 10 μM, 24 h
Protocol: A and B: Morphology of resting T cells treated with LAC. Tonsillar T cells were culture in the absence (A) or presence (B) of LAC ([…]) for 24 h, and the cells were examined by EM.
C and D: Morphology of activated T cells treated with LAC. Tonsillar T cells were first activated with PHA (2 μg/ml) for 40 h. The cells were then cultured in the absence (C) or presence (D) of LAC (10 μM) for additional 24h, and were examined with EM.
Electron microscopy was also employed to examine the mode of cell death induced by LAC. The resting T cells (cells cultured in medium, FIG. 3A), activated T cells (40 h after PHA activation, FIG. 3C), and Jurkat cells (FIG. 3E) were all healthy looking. […] The resting T cells treated with LAC (10 μM) for 24 h were still healthy (FIG. 3B).
T cells and Jurkat cells were examined by electron microscopy as described by Tsao and Duguid (Tsao et al., 1987, Exp. Cell Res. 168:365).

[5] = tested on: Peripheral blood T cells; assay: S phase entry of mitogen-stimulated peripheral blood T cells (flow cytometry); assay type: cell-based, human; conditions: PHA; for cell death: evaluated at 40 h, data not shown
Protocol: as §1
T cells from PBMC were at Go when isolated. After 16 h stimulation with PHA, they remained before the S phase (FIG. 6C). At 40 h, about 20% of the cells were in the S and G2/M phases. The peak of ^3H-thymidine uptake according to a 16 h pulse was between 48 h and 64 h (data not shown), although at 64 h, the cells in the S and G2/M phases were still about 20% (FIG. 6C). The lack of an increase in percentage of cells in the S and G2/M phases at 64 h compared with that at 40 h was likely due to the exit of the cells from the S and G2/M phase. It is to be noted that the cycling T cells in this system never reaches 100%, because about 15% of the cells were non T cells, and an additional 20% were non responsive T cells. Taken the cell proliferation and cell cycle analysis together, the G1/S boundary of the cycling T cells should be between about 35 h and 48 h after the PHA stimulation. The boundary was broad because the synchronization was not ideal.
In this model, the role of the proteasome in the S phase entry was examined. […] We have noticed that when the cell viability was evaluated at 40 h, there was an increase of cell death comparing the 16 h addition of LAC with the 0 h addition (about 25% vs about 17%, data not shown). The increased cell death was also reflected in the cells with <2N DNA in the 40 h histogram. However, such a viability was still reasonable and would not invalidate our conclusion. […] The discrepancy could be explained by the fact that the 20% cells were already in the S and G2/M phases at 40 h when LAC was added. LAC prevented additional cells from entering into the S phase, therefore the lack ^3H-thymidine uptake.
Flow cytometry was employed for cell cycle analysis for T cells and Jurkat cells as described before (Shan et al., 1994, supra) using propidium iodide staining.

inhibition at 10 µM ([2]; LAC at 10 μM): 90%
SMILES: CC(=O)N[C@@H](CSC(=O)[C@]1([C@@H](O)C(C)C)NC(=O)[C@H](C)[C@@H]1O)C(=O)O [LAC, lactacystin]
inhibition of subsequent PHA-stimulated proliferation after preincubation and wash ([1]; 3 h preincubation): significant inhibition
inhibition of subsequent PHA-stimulated proliferation after preincubation and wash ([1]; 16 h preincubation, compared with 3 h): more effective
inhibition of T cell proliferation (3H-thymidine uptake) ([1]; Ca++ ionophore plus cross-linking of CD28): strongly and dose-dependently inhibited
extent of inhibition of T cell proliferation ([1]; LAC at 5 μM, PHA, anti-CD3, anti-CD28 plus ionomycin systems): near-to-maximal inhibition
inhibition of 3H-thymidine uptake ([1]; PHA, LAC 10 μM added as late as 40 h, pulsed 48 h, harvested 64 h): strongly inhibitory
inhibition of T cell proliferation (3H-thymidine uptake) ([1]; crosslinking TCR with anti-CD3): strongly and dose-dependently inhibited
inhibition of T cell proliferation (3H-thymidine uptake) ([1]; induced by PHA, uptake 48-64 h): strongly and dose-dependently inhibited
inhibitory effect on the 20S proteasome activity ([2]; LAC increased to 20 μM): did not further increase the inhibitory effect
Bcl-xL level in transfected Namalwa cells [3]: accumulation of Bcl-xL
nuclear condensation by electron microscopy ([4]; activated T cells (40 h after PHA)): frequently observed
morphology by electron microscopy ([4]; resting T cells): still healthy
S phase entry ([5]; LAC 10 μM added once at 16 h, examined at 40 h): totally block the S phase entry
cell death ([5]; LAC added at 0 h): about 17%
cell death ([5]; LAC added at 16 h): about 25%
percentage of the population in the S and G2/M phase ([5]; LAC added at 40 h or not, at 64 h): no difference
